In patent US20170253607A1, “LONG-ACTING HIV PROTEASE INHIBITOR” (Shionogi & Co., Ltd., priority 2014, published 2017):

Assays:
[1] = target: HIV-1 PR (Human immunodeficiency virus type 1 group M subtype B, UniProt P04585); assay: HIV-protease inhibitory activity assay (FRET peptide substrate); type: biochemical; settings: Test Example 1
Procedure, shortened: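 Compounds were preincubated with HIV-1 PR (0.83 ng) at room temperature in pH 4.8 NaAc buffer (0.5 M NaCl, EDTA, DTT, Tween 20), then HiLyte Fluor 488/QXL 520 FRET peptide (2 μmol/L final) was added for 60 min. Fluorescence was read at 485/535 nm, and IC50 was fitted by four-parameter logistic regression.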

[2] = Evaluation of total body clearance (CLtot), intravenous administration; type: in vivo, Sprague-Dawley (SD); settings: rat (SD), intravenous administration 0.5-10 mg/kg; CLtot = dose/AUC
Procedure, shortened: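 Compounds given as a single tail-vein injection at 0.5-10 mg/kg (n=2-3), dose varying by compound. Plasma sampled at scheduled times and measured by LC/MS/MS; CLtot derived as dose divided by AUC from pharmacokinetic analysis.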

[3] = Protein binding test (equilibrium dialysis, unbound ratio fu in serum); type: in vitro ADME; settings: rat serum, equilibrium dialysis 24 hours, 37° C., 2 μg/mL
Protocol: Assay condition: Evaluation method; Equilibrium dialysis method, Reaction time; 24 hours, Reaction temperature; 37° C., Assay concentration; 2 μg/mL A solution of the compound was added to each serum and mixed to prepare the serum samples with above concentration. The serum sample was put into one side of an equilibrium dialysis apparatus with dialysis membrane and phosphate buffered saline (PBS) was also put to another side of the apparatus. The apparatus was incubated at 37° C. for 24 hours. After incubation, the serum and PBS samples were collected and the compound concentrations in both samples were measured by LC/MS/MS. Fu was calculated by dividing the concentration in PBS by the concentration in the serum.

Compound	IC50 [1] [nM]	rat_CLt [2] [mL/min/kg]	rat_fu [3] [%]
Cc1cc(Oc2ccc(CC(NC(=O)OC3COC4(C)OCCC34)C(O)CN(CC(C)C)S(=O)(=O)c3ccc4ncsc4c3)cc2)ccc1-c1sc2c(c1C(=O)O)CC(C)(C)CC2 (stereo not drawn) [Compound I-138]	2.66	1.6	<0.1
COc1ccc(S(=O)(=O)N(CC(C)C)CC(O)C(Cc2ccc(CN3CCc4ccc(-c5sc6c(c5C(=O)O)CC(C)(C)CC6)cc4C3)cc2)NC(=O)OC2COC3(C)OCCC23)cc1 (stereo not drawn) [Compound I-389]	1.79	14	<0.1
COc1ccc(S(=O)(=O)N(CC(C)C)CC(O)C(Cc2ccc(NCc3cc(C(F)(F)F)ccc3-n3nc4c(c3C(=O)O)CC(C)(C)CC4)cc2)NC(=O)OC2COC3(C)OCCC23)cc1 (stereo not drawn) [Compound I-378]	4.1	0.173	<0.1
COc1ccc(S(=O)(=O)N(CC(C)C)CC(O)C(Cc2ccc(Oc3ccc(-c4sc5c(c4C(=O)O)CC(C)(C)CC5)c(F)c3)cc2)NC(=O)OC2COC3OCCC23)cc1 (stereo not drawn) [Compound I-836]	1.76	4.31	<0.1
CC(C)CN(C[C@@H](O)[C@H](Cc1ccc(CCc2sc3c(c2C(=O)O)CC(C)(C)CC3)cc1)NC(=O)O[C@H]1CO[C@@]2(C)OCC[C@@H]12)S(=O)(=O)c1ccc2nc(N)sc2c1 [Compound I-15]	2.27	4.86	<0.1
COc1ccc(S(=O)(=O)N(CC(C)C)CC(O)C(Cc2ccc(OC3CN(c4cc(C(F)(F)F)ccc4-c4sc5c(c4C(=O)O)CC(C)(C)CC5)C3)cc2)NC(=O)OC2COC3(C)OCCC23)cc1 (stereo not drawn) [Compound I-354]	44.2	0.0682	<0.1
COc1ccc(S(=O)(=O)N(CC(C)C)CC(O)C(Cc2ccc(CN(C)c3ccc(-c4sc5c(c4C(=O)O)CC(C)(C)CC5)cc3)cc2)NC(=O)OC2COC3(C)OCCC23)cc1 (stereo not drawn) [Compound I-265]	5.07	4.01	<0.1
COc1ccc(S(=O)(=O)N(CC(C)C)CC(O)C(Cc2ccc(NCCCc3ccccc3-c3sc4c(c3C(=O)O)CC(C)(C)CC4)cc2)NC(=O)OC2COC3(C)OCCC23)cc1 (stereo not drawn) [Compound I-260]	2.96	0.801	<0.1
CCN(Cc1ccccc1-c1sc2c(c1C(=O)O)CC(C)(C)CC2)c1ccc(CC(NC(=O)OC2COC3(C)OCCC23)C(O)CN(CC(C)C)S(=O)(=O)c2ccc(OC)cc2)cc1 (stereo not drawn) [Compound I-352]	4.22	3.26	<0.1
COc1ccc(S(=O)(=O)N(CC(C)C)CC(O)C(Cc2ccc(N(C)CCc3ccccc3-c3sc4c(c3C(=O)O)CC(C)(C)CC4)cc2)NC(=O)OC2COC3(C)OCCC23)cc1 (stereo not drawn) [Compound I-261]	3.55	2.78	<0.1
COc1ccc(S(=O)(=O)N(CC(C)C)CC(O)C(Cc2ccc(N(C)C3Cc4cccc(-c5sc6c(c5C(=O)O)CC(C)(C)CC6)c4C3)cc2)NC(=O)OC2COC3(C)OCCC23)cc1 (stereo not drawn) [Compound I-405]	2.42	3.27	<0.1
COc1ccc(S(=O)(=O)N(CC(C)C)CC(O)C(Cc2ccc(N(C)CC3=C(c4sc5c(c4C(=O)O)CC(C)(C)CC5)CCC3)cc2)NC(=O)OC2COC3(C)OCCC23)cc1 (stereo not drawn) [Compound I-347]	4.4	5.18	<0.1
COc1ccc(S(=O)(=O)N(CC(C)C)CC(O)C(Cc2ccc(OCc3ccccc3-c3sc4c(c3C(=O)O)CCC4)cc2)NC(=O)OC2COC3OCCC23)cc1 (stereo not drawn) [Compound I-832]	1.16	4.09	<0.1
COc1ccc(S(=O)(=O)N(CC(C)C)CC(O)C(Cc2ccc(NCC3=C(c4sc5c(c4C(=O)O)CC(C)(C)CC5)CCCC3)cc2)NC(=O)OC2COC3(C)OCCC23)cc1 (stereo not drawn) [Compound I-231]	3.91	1.02	<0.1
COc1ccc(S(=O)(=O)N(CC(C)C)CC(O)C(Cc2ccc(N(C)CC3CCCCC3c3sc4c(c3C(=O)O)CC(C)(C)CC4)cc2)NC(=O)OC2COC3(C)OCCC23)cc1 (stereo not drawn) [Compound I-374]	4.35	3.94	<0.1
COc1ccc(S(=O)(=O)N(CC(C)C)CC(O)C(Cc2ccc(OCc3ncccc3-c3sc4c(c3C(=O)O)CC(C)(C)CC4)cc2)NC(=O)OC2COC3(C)OCCC23)cc1 (stereo not drawn) [Compound I-88]	0.86	2.5	<0.1

Compound	IC50 [1] [nM]	rat_CLt [2] [mL/min/kg]	rat_fu [3] [%]
CCCCCN(Cc1ccccc1-c1sc2c(c1C(=O)O)CC(C)(C)CC2)c1ccc(CC(NC(=O)OC2COC3(C)OCCC23)C(O)CN(CC(C)C)S(=O)(=O)c2ccc(OC)cc2)cc1 (stereo not drawn) [Compound I-338]	4.7	5.7	<0.1
CC(C)CN(CC(O)C(Cc1ccc(CCc2sc3c(c2C(=O)O)CC(C)(C)CC3)cc1)NC(=O)OC1COC2(C)OCCC12)S(=O)(=O)c1ccc2c(c1)OCO2 (stereo not drawn) [Compound I-106]	2.57	3.49	<0.1
COc1ccc(S(=O)(=O)N(CC2CCC(=O)N2)CC(O)C(Cc2ccc(OCc3ccccc3-c3sc4c(c3C(=O)O)CC(C)(C)CC4)cc2)NC(=O)OC2COC3(C)OCCC23)cc1 (stereo not drawn) [Compound I-148]	1.16	2.5	<0.1
COc1ccc(S(=O)(=O)N(CC(C)C)CC(O)C(Cc2ccc(OCc3ccccc3-c3sc4c(c3C(=O)O)CC(C)(C)CC4)cc2)NC(=O)OC2COC3OCCC23)cc1 (stereo not drawn) [Compound I-826]	1.18	0.823	<0.1
COc1ccc(S(=O)(=O)N(CC(C)C)CC(O)C(Cc2ccc(CN3CCc4c(-c5sc6c(c5C(=O)O)CC(C)(C)CC6)cccc43)cc2)NC(=O)OC2COC3(C)OCCC23)cc1 (stereo not drawn) [Compound I-386]	5.89	4.96	<0.1
COc1ccc(S(=O)(=O)N(CC(C)C)CC(O)C(Cc2ccc(Oc3ccc(C)c(-c4sc5c(c4C(=O)O)CC(C)(C)CC5)c3)cc2)NC(=O)OC2COC3(C)OCCC23)cc1 (stereo not drawn) [Compound I-134]	2.04	3.92	<0.1
CC(C)CN(CC(O)C(Cc1ccc(OCc2ccccc2-c2sc3c(c2C(=O)O)CC(C)(C)CC3)cc1)NC(=O)OC1COC2(C)OCCC12)S(=O)(=O)c1ccc2nc(N)sc2c1 (stereo not drawn) [Compound I-51]	2.65	1.47	<0.1
COc1ccc(S(=O)(=O)N(CC(C)C)C[C@@H](O)[C@H](Cc2ccc(CCc3sc4c(c3C(=O)O)CC(C)(C)CC4)cc2)NC(=O)O[C@H]2CO[C@@]3(C)OCC[C@@H]23)cc1 [Compound I-12]	1.82	2.9	<0.1
COc1ccc(S(=O)(=O)N(CC(C)C)CC(O)C(Cc2ccc(OCc3ccccc3-c3sc(Cl)c(C4CCCCC4)c3C(=O)O)cc2)NC(=O)OC2COC3OCCC23)cc1 (stereo not drawn) [Compound I-825]	1.02	5.22	<0.1
COc1ccc(S(=O)(=O)N(CC(C)C)CC(O)C(Cc2ccc(N(C)C3CN(c4ccc(-c5sc6c(c5C(=O)O)CC(C)(C)CC6)cc4)C3)cc2)NC(=O)OC2COC3(C)OCCC23)cc1 (stereo not drawn) [Compound I-391]	3.94	10.3	<0.1
COc1ccc(S(=O)(=O)N(CC(C)C)CC(O)C(Cc2ccc(OCc3ccccc3-c3oc4c(c3C(=O)O)CC(C)(C)CC4)cc2)NC(=O)OC2COC3(C)OCCC23)cc1 (stereo not drawn) [Compound I-49]	2.5	2.23	<0.1
COc1ccc(S(=O)(=O)N(CC(C)C)CC(O)C(Cc2ccc(OCc3ccccc3-c3sc4c(c3C(=O)O)CC(C)(C)CC4)cc2)NC(=O)OC2COC3(CO)OCCC23)cc1 (stereo not drawn) [Compound I-99]	0.81	0.576	<0.1
CC(C)CN(CC(O)C(Cc1ccc(CCc2sc3c(c2C(=O)O)CC(C)(C)CC3)cc1)NC(=O)OC1COC2(C)OCCC12)S(=O)(=O)c1ccc(N)cc1 (stereo not drawn) [Compound I-43]	2	3.19	<0.1
CC(C)CN(CC(O)C(Cc1ccc(OCCNC(=O)c2cc(Cl)cc(Cl)c2O)cc1)NC(=O)OC1COC2(C)OCCC12)S(=O)(=O)c1ccc2c(c1)OCO2 (stereo not drawn) [Compound I-168]	1.83	5.68	<0.1
COc1ccc(S(=O)(=O)N(CC(C)C)CC(O)C(Cc2ccc(OCc3ccccc3-c3sc4c(c3C(=O)O)CC(C)(C)CC4)cc2)NC(=O)OC2COC3(C)OCC(OCc4ccccc4)C23)cc1 (stereo not drawn) [Compound I-55]	7.34	0.752	<0.1
COc1ccc(S(=O)(=O)N(CC(C)C)CC(O)C(Cc2ccc(N(C)CC3=C(c4sc5c(c4C(=O)O)CC(C)(C)CC5)CCOC3)cc2)NC(=O)OC2COC3(C)OCCC23)cc1 (stereo not drawn) [Compound I-363]	3.36	3.39	<0.1
